According to PubChem BioAssay AID194 (DTP/NCI, 2004):
Where “and” joins values, the source holds several entries; their conditions need not be identical. Identical values can stand only once. Results filed as inconclusive are left out.

Tested on: BDF1 mice, B16 melanoma s.c., survival/tumor T/C
Assay: NCI In Vivo Anticancer Drug Screen. Data for tumor model B16 Melanoma (subcutaneous) in B6D2F1 (BDF1) mice
Experimental: The antitumor activity of compounds was measured in mice bearing transplantable tumors. Survival or tumor size were measured and the results are expressed as the measurement made in the treated group (T) divided by the measurement made in the vehicle treated control group (C). The tumor model used in this assay is B16 Melanoma (subcutaneous) in B6D2F1 (BDF1) mice

`FC(F)c1nc2nc(Cl)c(Cl)nc2[nH]1` was tested, and the T/C (endpoint: median survival time, dose: 2.0 mg/kg/injection, schedule: Q01DX009 (ip), vehicle: Klucel (hydroxypropylcellulose) (HPC), higher = longer survival) was 106 % of control, the T/C (endpoint: median survival time, dose: 4.0 mg/kg/injection, schedule: Q01DX009 (ip), vehicle: Klucel (hydroxypropylcellulose) (HPC), higher = longer survival) was 114 % of control and the T/C (endpoint: median survival time, dose: 8.0 mg/kg/injection, schedule: Q01DX009 (ip), vehicle: Klucel (hydroxypropylcellulose) (HPC), higher = longer survival) was 97 % of control. The T/C (endpoint: median survival time, dose: 8.0 mg/kg/injection, schedule: Q01DX009 (ip), vehicle: other, higher = longer survival) was 157 % of control, the T/C (endpoint: median survival time, dose: 16.0 mg/kg/injection, schedule: Q01DX009 (ip), vehicle: Klucel (hydroxypropylcellulose) (HPC), higher = longer survival) was 102 % of control and the T/C (endpoint: median survival time, dose: 16.0 mg/kg/injection, schedule: Q01DX009 (ip), vehicle: other, higher = longer survival) was 117 % of control. For the same compound, the T/C (endpoint: median survival time, dose: 32.0 mg/kg/injection, schedule: Q01DX009 (ip), vehicle: Klucel (hydroxypropylcellulose) (HPC), higher = longer survival) was 121 % of control and the T/C (endpoint: median survival time, dose: 32.0 mg/kg/injection, schedule: Q01DX009 (ip), vehicle: other, higher = longer survival) was 89 % of control.

With `O=NN(CCCl)C(=O)NC1CCCCC1` the T/C (endpoint: median survival time, dose: 4.0 mg/kg/injection, schedule: Q01DX009 (ip), vehicle: saline, higher = longer survival) was 115 % of control, the T/C (endpoint: median survival time, dose: 5.18 mg/kg/injection, schedule: Q01DX007 (ip), vehicle: Klucel (hydroxypropylcellulose) (HPC), higher = longer survival) was 103 % of control and the T/C (endpoint: median survival time, dose: 8.64 mg/kg/injection, schedule: Q01DX007 (ip), vehicle: Klucel (hydroxypropylcellulose) (HPC), higher = longer survival) was 88 % of control. For the same compound, the T/C (endpoint: median survival time, dose: 12.0 mg/kg/injection, schedule: Q01DX001 (ip), vehicle: Klucel (hydroxypropylcellulose) (HPC), higher = longer survival) was 111 % of control and 112 % of control and 116 % of control, the T/C (endpoint: median survival time, dose: 14.4 mg/kg/injection, schedule: Q01DX007 (ip), vehicle: Klucel (hydroxypropylcellulose) (HPC), higher = longer survival) was 124 % of control and the T/C (endpoint: median survival time, dose: 16.0 mg/kg/injection, schedule: Q01DX009 (ip), vehicle: saline, higher = longer survival) was 175 % of control. The T/C (endpoint: median survival time, dose: 32.0 mg/kg/injection, schedule: Q01DX009 (ip), vehicle: saline, higher = longer survival) was 105 % of control, the T/C (endpoint: median tumor weight (est.), dose: 8.0 mg/kg/injection, schedule: Q01DX009 (ip), vehicle: Klucel (hydroxypropylcellulose) (HPC), higher = larger tumour) was 28 % of control and 47 % of control and the T/C (endpoint: median tumor weight (est.), dose: 12.5 mg/kg/injection, schedule: Q01DX001 (ip), vehicle: Klucel (hydroxypropylcellulose) (HPC), higher = larger tumour) was 96 % of control and 110 % of control. For the same compound, the T/C (endpoint: median tumor weight (est.), dose: 16.0 mg/kg/injection, schedule: Q01DX009 (ip), vehicle: Klucel (hydroxypropylcellulose) (HPC), higher = larger tumour) was 27 % of control, the T/C (endpoint: median tumor weight (est.), dose: 50.0 mg/kg/injection, schedule: Q01DX001 (ip), vehicle: Klucel (hydroxypropylcellulose) (HPC), higher = larger tumour) was 21 % of control and the T/C (endpoint: median tumor weight (est.), dose: 100.0 mg/kg/injection, schedule: Q01DX001 (ip), vehicle: Klucel (hydroxypropylcellulose) (HPC), higher = larger tumour) was 38 % of control.

`Cc1c(N)nc(C(CC(N)=O)NCC(N)C(N)=O)nc1C(=O)NC(C(=O)NC(C)C(O)C(C)C(=O)NC(C(=O)NCCc1nc(-c2nc(C(=O)NCCCNCCCc3ccccn3)cs2)cs1)C(C)O)C(OC1OC(CO)C(O)C(O)C1OC1OC(CO)C(O)C(OC(N)=O)C1O)c1cnc[nH]1` (stereo not drawn) was tested, and the T/C (endpoint: median survival time, dose: 0.1 mg/kg/injection, schedule: Q01DX010 (ip), vehicle: water, higher = longer survival) was 101 % of control, the T/C (endpoint: median survival time, dose: 0.2 mg/kg/injection, schedule: Q01DX010 (ip), vehicle: water, higher = longer survival) was 116 % of control and 124 % of control and the T/C (endpoint: median survival time, dose: 0.4 mg/kg/injection, schedule: Q01DX010 (ip), vehicle: water, higher = longer survival) was 96 % of control and 124 % of control. The T/C (endpoint: median survival time, dose: 1.6 mg/kg/injection, schedule: Q01DX010 (ip), vehicle: water, higher = longer survival) was 117 % of control and the T/C (endpoint: median survival time, dose: 3.2 mg/kg/injection, schedule: Q01DX010 (ip), vehicle: water, higher = longer survival) was 88 % of control.

With `Cn1c(CCCC(=O)O)nc2cc(N(CCCl)CCCl)ccc21` the T/C (endpoint: median survival time, dose: 2.5 mg/kg/injection, schedule: Q01DX009 (ip), vehicle: saline, higher = longer survival) was 120 % of control, the T/C (endpoint: median survival time, dose: 5.0 mg/kg/injection, schedule: Q01DX009 (ip), vehicle: saline, higher = longer survival) was 98 % of control and the T/C (endpoint: median survival time, dose: 10.0 mg/kg/injection, schedule: Q01DX009 (ip), vehicle: saline, higher = longer survival) was 96 % of control.
